From ChEMBL document CHEMBL2311372, “Design and synthesis of novel benzoheterocyclic derivatives as human acrosin inhibitors by scaffold hopping” (Eur J Med Chem, 2013) come the findings set out here.

In this test the target is Acrosin (Homo sapiens, UniProt P10323). In words: Inhibition of human acrosin using N-alpha-benzoyl-DL-arginine para-nitroanilide-HCl as substrate after 3 hrs by spectrophotometry.
Sequence of Acrosin (P10323 20-42 limits assumed): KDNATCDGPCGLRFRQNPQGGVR
Sequence of Acrosin (P10323 43-343 limits assumed): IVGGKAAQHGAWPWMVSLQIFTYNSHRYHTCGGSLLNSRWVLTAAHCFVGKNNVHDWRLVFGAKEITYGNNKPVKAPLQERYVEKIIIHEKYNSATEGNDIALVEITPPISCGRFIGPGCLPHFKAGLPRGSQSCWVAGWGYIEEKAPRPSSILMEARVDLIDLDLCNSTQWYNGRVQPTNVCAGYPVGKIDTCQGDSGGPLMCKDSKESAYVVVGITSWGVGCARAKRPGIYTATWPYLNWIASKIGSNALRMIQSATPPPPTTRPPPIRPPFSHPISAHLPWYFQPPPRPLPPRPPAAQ
The compound `O=C(NCCO)Nc1nc2ccc(S(=O)(=O)NCc3cc(Cl)cc(Cl)c3)cc2[nH]1` gave an IC50 of 2.45 mM. The compound `COc1ccc(-c2cc(C(=O)N(C)CCO)n[nH]2)cc1` returned an IC50 of 6.81 mM. Take `O=C(NCCO)Nc1nc2ccc(S(=O)(=O)NCc3ccccc3Cl)cc2[nH]1`: the 50% inhibitory concentration (IC50) was found to be 1.06 mM. `COc1ccc(-c2cc(C(=O)NCCCO)[nH]n2)cc1`: the IC50 amounted to 1.43 mM. Regarding `CCCCN(CCCC)CC(=O)Nc1nc2ccc(Br)cc2s1`, half-maximal inhibition (IC50) required 2.78 mM. `COc1ccc(-c2cc(C(=O)N(CCO)CCO)n[nH]2)cc1`: the IC50 is 5.73 mM. `COc1ccc(-c2cc(C(=O)NCC(C)O)n[nH]2)cc1` (stereo unspecified) had an IC50 of 8.92 mM. The figure for `O=C(NCCO)Nc1nc2ccc(S(=O)(=O)NCc3cc(F)cc(F)c3)cc2[nH]1` is 0.34 mM; for `O=C(NCCO)Nc1nc2ccc(S(=O)(=O)NCc3ccccc3F)cc2[nH]1` it is 0.08 mM. The figure for `O=Cc1cc(-c2ccc(Cl)cc2Cl)on1` is 39 mM.

As for `CCCCCN(CCCCC)CC(=O)Nc1nc2ccc(Br)cc2s1`, it took 0.54 mM to reach half-maximal inhibition (IC50). The figure for `CCOC(=O)c1nn(C(=O)c2ccc(Cl)cc2Cl)c2ccccc12` is 3.24 mM. The compound `Cc1ccc(S(=O)(=O)NC(CCCCN)C(=O)CCl)cc1` (stereo unspecified) returned a half-maximal inhibitory concentration (IC50) of 143 mM. In the case of `CNC(=O)c1nn(C(=O)c2ccc(Cl)cc2Cl)c2ccccc12`, the half-maximal inhibitory concentration (IC50) is 3.78 mM. The figure for `CCCCCCNS(=O)(=O)c1ccc2nc(NC(=O)NCCO)[nH]c2c1` is 1.62 mM; for `CC(C)CCN(CCC(C)C)CC(=O)Nc1nc2ccc(Br)cc2s1` it is 1.09 mM; for `O=C(NCCO)Nc1nc2ccc(S(=O)(=O)NCc3ccccc3)cc2[nH]1` it is 0.28 mM.

`COc1ccccc1CNS(=O)(=O)c1ccc2nc(NC(=O)NCCO)[nH]c2c1` had an IC50 of 6.04 mM. `COc1cccc(CNS(=O)(=O)c2ccc3nc(NC(=O)NCCO)[nH]c3c2)c1` came in with a half-maximal inhibitory concentration (IC50) of 7.32 mM.

For the compound `Cc1cccc(CNS(=O)(=O)c2ccc3nc(NC(=O)NCCO)[nH]c3c2)c1`, the half-maximal inhibitory concentration (IC50) stood at 5.45 mM. The figure for `CCCCCN1CCN(CC(=O)Nc2nc3ccc(Br)cc3s2)CC1` is 5.08 mM.
